The source of these data is US20110200618A1, “ERBB4 INHIBITORS AND USES THEREOF IN TREATMENT OF NEUROPSYCHIATRIC DISORDERS” (priority 2008, published 2011).

Assay type in all cases: cell-based
The subject of experiment [1] is NRG1 induced ERK activation. Nature of the experiment: NRG1 induced ERK activation in human olfactory epithelial (hOE) cultures, western blot. The following applies: healthy person, inhibitors 20 min, then 100 ng/ml NRG1 10 min, 10 μM U0126, 10 nM wortmannin, 100 nM K-252, 2.5 μM AG1478, 1 μM AG879. On the technique in general: Immunoblotting shows a protein as a band on a membrane.
Method: Protein extracts were analyzed for the expression of p-ERK and glyeraldehyde 3-dehydrogenase (GAPDH). U, 10 μM of U0126: W, 10 nM of wortmannin: K, 100 nM K-252, 2.5 μM of AG1478 and 1 μM of AG879;
Protein extracts were analyzed for the expression of p-ERK and glyceraldehyde 3-dehydrogenase (GAPDH). (A) A representative western blotting (B) p-ERK intensities were normalized with respect to GAPDH, which were then used to calculate percent inhibition.
As an internal control experiment, the cells were also incubated with inhibitors for ERK, AKT or trkb activation, U0126, wortmannin or K-252 respectively.

For experiment [2], the system named is NRG1 induced ERK activation. Nature of the experiment: NRG1 stimulation of post-mortem human prefrontal cortex tissues, ERK activation. The conditions noted are these: post-mortem PFC of healthy control; 2.5 μM AG1478 pre-incubated 15 min, 100 ng/ml NRG1. The method, then:
NRG1 stimulation of human post-mortem PFC. 100 mg of post-mortem brain tissues of a healthy control subject were incubated with or without 100 ng/ml of NRG1 in the presence or absence of 2.5 μM AG1478. Protein extracts were analyzed for p-ERK and ERK;
Protein extracts were analyzed for the expression of ERK, AKT and GSK and their phosphorylated counterparts;
erbB stimulation/inhibition experiment wastested in post-mortem brain tissues. FIG. 2 represents an experiment, in which the PFC of a healthy control subject was stimulated with NRG1 in the presence of AG1478. In this experiment, the tissues were incubated with the inhibitor for 15 min before added with 100 ng/ml of NRG1.
GSK1495829A was tested in post-mortem mouse and human brain tissues. FIG. 4 represents an experiment, in which the PFC tissues of a healthy control subject were pre-incubated with varied concentrations of the inhibitor for 15 min before the ligand stimulation with 100 ng/ml of NRG1. […] One possible explanation could be that the brain tissues are less permeable to the inhibitors than OE culture cells.

The next experiment has as its system activation of AKT. Nature of the experiment: NRG1 stimulation of post-mortem mouse brain tissues after 60 min pre-incubation, AKT activation. The conditions noted are these: post-mortem mouse brain tissue slices, GSK compound at 10 μM, 100 ng/ml NRG1.
In the next experiment the test system is activation of ERK. Nature of the experiment: NRG1 stimulation of post-mortem mouse brain tissues after 60 min pre-incubation, ERK activation. The conditions noted are these: post-mortem mouse brain tissue slices, GSK compound at 10 μM, 100 ng/ml NRG1, vehicle control also failed to respond to NRG1. The protocol:
Protein extracts were analyzed for the expression of p-ERK;
To enhance the permeability of the inhibitors, tissue slices were pre-incubated with the inhibitors for 60 min before added with NRG1.

On to `CC(C)(C)c1cc(C=C(C#N)C(N)=S)cc(C(C)(C)C)c1O` [AG 879, α-Cyano-(3,5-di-t-butyl-4-hydroxy)thiocinnamide], for which the “NRG1 induced p-ERK with respect to GAPDH” value in experiment [1] is reported as “attenuated”.
`COc1cc2ncnc(Nc3cccc(Cl)c3)c2cc1OC` [AG 1478, 4-(3-Chloroanilino)-6,7-dimethoxyquinazoline]: the “NRG1 induced ERK activation (ratio p-ERK to ERK)” value in experiment [2] is “significantly reduced”. Further, the “activation of AKT” value with activation of AKT is “did not reduce”. Also, in experiment [1], the “NRG1 induced p-ERK with respect to GAPDH” value was “attenuated”. Also, the “activation of ERK” value in the experiment with activation of ERK was “did not reduce”.
Consider `N#CC(=C(/N)Sc1ccccc1N)/C(C#N)=C(\N)Sc1ccccc1N` [U0126], for which the “NRG1 induced p-ERK with respect to GAPDH” value in experiment [1] is listed as “significantly reduced”.
